Assay [1] relates to pro-Lyb-2 cells. In words: Induction assay: Lyb-2 expression (B-cell differentiation). The format is cell-based, mouse. The conditions noted are these: 3 hr incubation; compared with natural bursopoietin at the same concentration. The method, then:
To determine the activity and immunological characteristics of one of the subject peptide, certain related peptides prepared in the above Examples, and natural bursopoietin, an induction assay was carried out substantially as described in Audhya, et al., Proc. Natl. Acad. Sci. USA, 81,2847 (1984).
In brief, prothymocytes (Thy-1^-) and pro-Lyb-2 cells were coenriched from B6-Lyb-2.1 congenic mouse spleen by bovine serum albumin density gradient centrifugation (Path-O-Cyte 5, lot 35, 1 ml of 35/29/26/23/18/12%). The 26/23 and 23/18 interface layers were combined, and Thy-1^+ and Lyb-2^+ cells were removed by reaction with monoclonal Thy-1.2 and Lyb-2.1 antibodies prepared according to Scheid, et al., Immunogenetics, 9, 423-433 (1979), and adherence to plates coated with affinity-purified rabbit anti-mouse F(ab)2. The washed nonadherent cells were used for both assays. This starting population contained 30-40% prothymocytes and 30-40% pro-Lyb-2 cells (known to represent separate committed precursor populations) as described in Scheid, et al., J. Exp. Med., 147, 1727-1743 (1978).
Cells (5×10^6 cells per 0.5 ml of RPMI 1640 medium) were incubated in 5-ml plastic tubes with equal volumes of test compound in serial dilution in RPMI 1640 medium in a humidified 5% CO2 atmosphere for 3 hr. […]

For assay [2], the system named is pro-Lyb-2 cells. Particulars: from the referenced articles; cited from earlier work.

Data on two molecules can be found in patent publication US4783442A, “B-cell differentiating peptides” (Ortho Pharmaceutical Corporation, priority 1986, dated 1988).

Where a SMILES comes first, the peptide text is derived from it.

For `NCCCC[C@H](N)C(=O)N[C@@H](Cc1c[nH]cn1)C(=O)NCC(N)=O` [H-LYS-HIS-GLY-NH2, L-Lysyl-L-Histidyl-Glycineamide] (H-Lys-His-Gly-NH2), in the assay with pro-Lyb-2 cells [1], the “activity in differentiation induction assay (FIG. 1)” value is “possessed the activity of the natural isolate”.

For ubiquitin, the “induction of differentiation of T-cells and B-cells” value in the assay on pro-Lyb-2 cells [2] was “nonselectively induce the differentiation of both T-cells and B-cells”.
